33 compounds from patent US12565511B2, “SOS1 inhibitor containing phosphorus” (Chia Tai Tianqing Pharmaceutical Group Co., Ltd., priority 2020, dated 2026) can be followed below.

For one assay, the system named is K562 cells. Briefly: Assay for proliferation inhibitory activity of K562 cells. The class given is cell-based. As to conditions: Homo sapiens, 72 h, CCK-8, read-out: K562 cell proliferation inhibition IC50. How it is done:
Test Example 4 Assay for Proliferation Inhibitory Activity of K562 Cells
The K562 cell line can be purchased from the American Type Culture Collection (ATCC).
The K562 cells in a good growth state were added to a centrifuge tube with the cell density adjusted to 3×10^4/mL, and seeded on a 96-well plate (100 μL/well). The cells were cultured overnight in a cell incubator, the compound was loaded using a nanoliter pipettor to allow the final compound concentration to be 10000 nM to 4.6 nM, 2 replicate wells were set and control was set.

Another assay deals with T1, KRAS-G12C/SOS1 (Homo sapiens, UniProt Q07889).
T1 sequence (Q07889 564-1049): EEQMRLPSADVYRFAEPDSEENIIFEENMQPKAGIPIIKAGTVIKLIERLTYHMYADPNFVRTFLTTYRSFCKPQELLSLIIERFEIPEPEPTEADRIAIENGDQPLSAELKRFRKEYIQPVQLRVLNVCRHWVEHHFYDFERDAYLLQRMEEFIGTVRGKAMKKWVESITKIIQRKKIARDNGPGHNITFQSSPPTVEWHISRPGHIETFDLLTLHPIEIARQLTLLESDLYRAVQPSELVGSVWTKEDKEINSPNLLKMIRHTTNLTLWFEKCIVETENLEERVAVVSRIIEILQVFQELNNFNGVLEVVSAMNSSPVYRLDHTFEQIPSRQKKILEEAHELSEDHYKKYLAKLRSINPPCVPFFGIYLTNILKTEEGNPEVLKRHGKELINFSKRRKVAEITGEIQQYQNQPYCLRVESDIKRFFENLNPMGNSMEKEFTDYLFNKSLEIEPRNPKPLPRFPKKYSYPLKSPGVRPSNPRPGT
Briefly: biochemical.

Consider `Cc1nc(N[C@H](C)c2cccc(C(F)(F)F)c2F)c2cc(P3(=O)CCN(S(C)(=O)=O)CC3)ncc2n1` [Example 19], for which the figures for the IC50 in the assay on K562 cells and on KRAS-G12C/SOS1 were 206 nM and 41 nM, respectively.
For `Cc1nc(N[C@H](C)c2cccc3c2OCC3(F)F)c2cc(P3(=O)CCN(S(C)(=O)=O)CC3)ncc2n1` [Example 22], in that order: 836 nM and 63 nM.
`C[C@@H](Nc1nc(CF)nc2cnc(P3(=O)CCN(S(C)(=O)=O)CC3)cc12)c1cccc(C(F)(F)F)c1F` [Example 24]: the IC50 in the assay with K562 cells stood at 177 nM.
With `[2H]C(C)(Nc1nc(C)nc2cnc(P3(=O)CCN(S(C)(=O)=O)CC3)cc12)c1cccc(C(F)(F)F)c1F` (stereo not drawn) [Example 25], the IC50 in the assay on K562 cells worked out at 247 nM; on KRAS-G12C/SOS1, 86 nM.
At KRAS-G12C/SOS1, `Cc1nc(N[C@H](CF)c2cccc(C(F)(F)F)c2C)c2cc(P3(=O)CCN(S(C)(=O)=O)CC3)ccc2n1` [Example 26] yielded an IC50 of 103 nM.
With `COc1cc2ncnc(N[C@H](C)c3cccc(C(F)F)c3F)c2cc1P1(=O)CCN(C(C)=O)CC1` [Example 28], the IC50 with K562 cells came out at 239 nM; against KRAS-G12C/SOS1 it was 50 nM.
For `COc1cc2ncnc(N[C@H](C)c3cccc(C(F)F)c3F)c2cc1P1(=O)CCN(S(C)(=O)=O)CC1` [Example 29], in that order: 320 nM and 63 nM.
As for `COc1cc2nc(CF)nc(N[C@H](C)c3cccc(C(F)F)c3F)c2cc1P1(=O)CCN(C(C)=O)CC1` [Example 30], the IC50 in the assay on K562 cells came out at 302 nM; against KRAS-G12C/SOS1 it was 68 nM.
`CC(=O)N1CCP(=O)(c2ccc3nc(CF)nc(N[C@H](C)c4cccc(C(F)F)c4F)c3c2)CC1` [Example 31]: the IC50 in the assay with K562 cells was 513 nM; against KRAS-G12C/SOS1, 129 nM.
On to `CC(=O)N1CCP(=O)(c2cc3c(N[C@H](C)c4cccc(C(F)F)c4F)nc(CF)nc3cc2F)CC1` [Example 32], for which the figures for the IC50 with K562 cells and against KRAS-G12C/SOS1 were 155 nM and 90 nM, respectively.
For `CC(=O)N1CCP(=O)(c2ccc3nc(Cl)nc(N[C@H](C)c4cccc(C(F)F)c4F)c3c2)CC1` [Example 33], in that order: 250 nM and 64 nM.
The compound `CCP(=O)(CC)c1cc2c(N[C@H](C)c3cccc(C(F)F)c3F)nc(C)nc2cc1OC` [Example 34] showed an IC50 against KRAS-G12C/SOS1 of 612 nM.
Consider `Cc1nc(N[C@H](C)c2cccc(C(F)F)c2F)c2cc(P3(=O)CCOCC3)ncc2n1` [Example 35], for which the IC50 in the assay on K562 cells was 574 nM; on KRAS-G12C/SOS1, 156 nM.
For `Cc1nc(N[C@H](C)c2cccc(C(F)F)c2F)c2cc(P3(=O)CCOCC3)ccc2n1` [Example 36], in that order: 346 nM and 94 nM.
Turning to `Cc1nc(N[C@H](C)c2cccc(C(F)(F)F)c2F)c2cc(P3(=O)CCOCC3)ccc2n1` [Example 37], the IC50 stood at 362 nM in the assay on K562 cells and 97 nM against KRAS-G12C/SOS1.
`Cc1nc(N[C@H](C)c2cccc(C(F)F)c2F)c2cc(P3(=O)CCOCC3)c(F)cc2n1` [Example 38]: the IC50 with K562 cells came to 477 nM; against KRAS-G12C/SOS1, 115 nM.
Consider `Cc1nc(N[C@H](C)c2cccc(C(F)F)c2F)c2cc(P3(=O)CCOCC3)cc(F)c2n1` [Example 39], for which the results for the IC50 with K562 cells and at KRAS-G12C/SOS1 were 561 nM and 103 nM, respectively.
As for `Cc1nc(N[C@H](C)c2cccc(C(F)(F)F)c2C)c2cc(P3(=O)CCOCC3)c(=O)n(C)c2n1` [Example 40], the IC50 is 514 nM in the assay on K562 cells and 179 nM on KRAS-G12C/SOS1.
As for `Cc1nc(N[C@H](C)c2cccc(C(F)(F)F)c2F)c2cc(P3(=O)CCOCC3)nc(C#N)c2n1` [Example 41], the values for the IC50 in the assay on K562 cells and on KRAS-G12C/SOS1 were 570 nM and 180 nM, respectively.
Take `Cc1nc(N[C@H](C)c2cccc(C(F)F)c2F)c2cc(P3(=O)CCN(C4COC4)CC3)ncc2n1` [Example 51]: the values for the IC50 with K562 cells and on KRAS-G12C/SOS1 were 282 nM and 100 nM, respectively.
Turning to `Cc1nc(N[C@H](C)c2cccc(C(F)F)c2F)c2cc(P3(=O)CCN(C(=O)N(C)C)CC3)ncc2n1` [Example 55], the IC50 was 280 nM with K562 cells and 87 nM on KRAS-G12C/SOS1.
For the compound `Cc1nc(N[C@H](C)c2cccc(C(F)F)c2F)c2cc(P3(=O)CCN(CC#N)CC3)ccc2n1` [Example 56], the IC50 in the assay with K562 cells was found to be 507 nM; on KRAS-G12C/SOS1, 88 nM.
Taken in the same sequence, the figures for `Cc1nc(N[C@H](C)c2cccc(C(F)F)c2F)c2cc(P3(=O)CCN(CC(=O)N(C)C)CC3)ccc2n1` [Example 57] were 2170 nM and 204 nM.
Consider `Cc1nc(N[C@H](C)c2cccc3c(F)coc23)c2cc(P3(=O)CCN(S(C)(=O)=O)CC3)ccc2n1` [Example 61], for which the results for the IC50 with K562 cells and at KRAS-G12C/SOS1 were 421 nM and 63 nM, respectively.
Taken in the same sequence, the figures for `Cc1nc(N[C@H](C)c2cccc(C(F)(F)F)c2C)c2cc(P3(=O)CCN(S(C)(=O)=O)CC3)ccc2n1` [Example 62] were 155 nM and 45 nM.
With `COc1cc2nc(C)nc(N[C@H](C)c3cccc(C(F)F)c3F)c2cc1P1(=O)CCN(S(C)(=O)=O)CC1` [Example 63], the IC50 with K562 cells was 137 nM; against KRAS-G12C/SOS1, 38 nM.
`C[C@@H](Nc1ncnc2cnc(P3(=O)CCN(S(C)(=O)=O)CC3)cc12)c1cccc(C(C)(F)F)c1F` [Example 64]: the IC50 in the assay with K562 cells turned out to be 281 nM; against KRAS-G12C/SOS1, 64 nM.
With `COc1cc2nc(C)nc(N[C@H](C)c3cccc(C(F)F)c3C)c2cc1P1(=O)CCOCC1` [Example 66], the IC50 in the assay with K562 cells was found to be 271 nM; at KRAS-G12C/SOS1 it was 79 nM.
Consider `COc1cc2nc(C)nc(N[C@H](C)c3cccc(C(F)(F)F)c3C)c2cc1P1(=O)CCOCC1` [Example 67], for which the IC50 came to 264 nM in the assay with K562 cells and 71 nM at KRAS-G12C/SOS1.
For `COc1cc2nc(C)nc(N[C@H](C)c3cccc(C(F)(F)F)c3F)c2cc1P1(=O)CCOCC1` [Example 68], in that order: 720 nM and 90 nM.
For the compound `COc1cc2nc(C)nc(N[C@H](C)c3cccc(C(C)(F)F)c3F)c2cc1P1(=O)CCOCC1` [Example 69], the IC50 with K562 cells amounted to 310 nM; on KRAS-G12C/SOS1 it was 49 nM.
Turning to `COc1cc2nc(C)nc(N[C@H](C)c3cccc(C(F)(F)CO)c3)c2cc1P1(=O)CCOCC1` [Example 70], the IC50 with K562 cells came to 257 nM; against KRAS-G12C/SOS1 it was 44 nM.
Regarding `COc1cc2nc(C)nc(N[C@H](C)c3cccc(C(F)(F)C(C)(C)O)c3)c2cc1P1(=O)CCOCC1` [Example 71], the figures for the IC50 with K562 cells and on KRAS-G12C/SOS1 were 139 nM and 35 nM, respectively.
